In article PMC4941645, “Oxidative Stress Induced by Pt(IV) Pro-drugs Based on the Cisplatin Scaffold and Indole Carboxylic Acids in Axial Position” (Scientific Reports, 2016):

Experiments:
caspase-3 = experiment: Caspase-3 activation; assay type: cell-based, human; settings: A375, IC50 doses, 48 h
Description: Caspase-3 cleavage reached values similar to that exerted by the well-known caspase-dependent apoptosis inducer staurosporine.
Protein aliquots (100 μg) were stained at 37 °C for 60 min with fluorescent caspase-3 substrate N-acetyl-Asp-Glu-Val-Asp-AMC (AMC = 7-amino-4-methylcoumarin) (Sigma Co.). Substrate hydrolysis was measured after 60 min by monitoring the release of AMC using a spectrofluorimeter (excitation at 370 nm, emission at 460 nm).

A375 cells [1] = experiment: Mitochondrial membrane potential; assay type: cell-based, human; settings: A375, IC50 concentrations, 24 and 48 h
Description: A persistent increase in the rate of ROS production is responsible for the accumulation of ROS. In turn, an increase in cellular ROS leads to the loss of the mitochondrial membrane potential (ΔΨm, MMP), thus possibly leading to the induction of apoptosis. The effect induced by the Pt(IV) complexes on the MMP was assessed by treating A375 cells with IC50 concentrations of 1P and 1A and evaluating the energization of treated melanoma cells in terms of the retention of the cationic fluorescent probe tetramethyl rhodamine methyl ester (TMRM).
Figure 9 Effects of 1P and 1A on the cellular mitochondrial membrane potential. […] The percentage of cells with a hypopolarized mitochondrial membrane potential was determined fluorimetrically.
The ΔΨm was assayed using the Mito-ID® Membrane Potential Kit according to the manufacturer’s instructions (Enzo Life Sciences, Farmingdale, NY). Briefly, A375 cells (8 × 10^3 per well) were seeded in 96-well plates, after 24 h, cells were washed with PBS and loaded with Mito-ID Detection Reagent for 30 min at 37 °C in the dark. Afterwards, cells were washed with PBS and incubated with increasing concentrations of the tested complexes. The fluorescence was estimated using a plate reader (Fluoroskan Ascent FL, Labsystem, Finland) at 490 (excitation) and 590 nm (emission).

A375 cells [2] = experiment: Hoechst 33258 staining, apoptosis morphology; assay type: cell-based, human; settings: A375, IC50 doses, 48 h
Description: A375 cells were seeded into 8-well tissue-culture slides (BD Falcon, Bedford, MA, USA) at 5 × 10^4 cells/well (0.8 cm^2).

[3] = Reduction with ascorbic acid followed by HPLC; assay type: physicochemical; settings: 10 eq. ascorbic acid, 37 °C, pH 7, HPLC; for complex reduced: 3 h incubation
Description: The reduction reaction of two representative complexes (1A and 1P) and the release of the indole carboxylic acid ligands was analyzed by HPLC using ascorbic acid as the reductant and 37 °C, pH 7 as physiological conditions (Fig. 4 and S1). The HPLC chromatograms of the reduction reaction of the complexes were compared with the chromatograms of pure samples of the carboxylic acid ligands. […] After 3 h incubation with 10 eq. of ascorbic acid 75% of 1P and 50% of 1A was reduced. […] We further studied the nature of the Pt(II) species produced upon the reduction of 1P and 1A by ^195Pt NMR. […] Unfortunately, monitoring the reduction reaction of the symetrically (2A and 2P) and unsymmetrically (3A–5A and 3P–5P) substituted dicarboxylato complexes was hampered by the poor solubility of the complexes in water and most organic solvents except DMF and DMSO. For the same reason the reduction potentials could not be determined by cyclic voltammetry. However it has been reported that the reduction rate of cis,cis,trans-[Pt(NH3)2Cl2(RCOO)(OH)] monocarboxylato complexes is faster than that of dicarboxylato complexes and this has been attributed to the fact that hydroxido ligands are much better bridging ligands for electron transfer than carboxylate ligands.
The reduction of the complexes 1A and 1P) with ascorbic acid was followed by HPLC using a Phenomenex Luna C18 ([…], 100 Å, 250 mm × 4.60 mm i.d.) column at a flow rate of 1.0 mL/min with 280 nm UV detection at room temperature. The mobile phase was 80:20 acetonitrile (1% trifluoroacetic acid) : water (1% trifluoroacetic acid). The complexes were dissolved in DMF (0.5 mL) and added to a 5 mM solution of ascorbic acid in 2 mM 4-(2-hydroxyethyl)piperazine-1-ethanesulfonic acid (HEPES) buffer (pH 7) and diluted to a final concentration of 0.5 mM using acetonitrile. The process was followed at 37 °C until complete reduction.

[4] = tested on: A549 lung carcinoma cells; experiment: cells; settings: for IC50: A549, 72 h, MTT, ± S.D.
Description: The cytotoxic activity of the complexes and of the uncoordinated ligands was evaluated by the MTT test on a panel of human tumor cell lines containing examples of pancreatic (BxPC3), colorectal (HCT-15), breast (MCF-7), cervical (A431), and lung (A549) cancers as well as of melanoma (A375). For comparison purposes, the cytotoxicity of cisplatin was evaluated under the same experimental conditions.
Cisplatin was dissolved in 0.9% NaCl solution.
Human breast (MCF-7), colon (HCT-15), lung (A549) and pancreatic (BxPC3) carcinoma cell lines together with melanoma (A375) cells were obtained from American Type Culture Collection (ATCC, Rockville, MD). The human ovarian cancer cell line 2008 and its cisplatin resistant variant, C13*, were kindly provided by Prof. G. Marverti (Department of Biomedical Science of Modena University, Italy). Human cervical carcinoma (A431) cells were kindly provided by Prof. F. Zunino (Division of Experimental Oncology B, Istituto Nazionale dei Tumori, Milan, Italy). Cell lines were maintained in the logarithmic phase at 37 °C in a 5% carbon dioxide atmosphere using the following culture media containing 10% fetal calf serum (Euroclone, Milan, Italy), antibiotics (50 units/mL penicillin and 50 μg/mL streptomycin) and 2 mM L-glutamine: (i) RPMI-1640 medium (Euroclone) for 2008, C13*, MCF-7, HCT-15, A431 and BxPC3 cells, (ii) F-12 HAM’S (Sigma Chemical Co.) for A549 cells, iii) DMEM (Sigma Chemical Co.) for A375 cells.
The growth inhibitory effect toward tumor cells was evaluated by means of the MTT assay. Briefly, (3–8) × 10^3 cells/well, dependent upon the growth characteristics of the cell line, were seeded in 96-well microplates in growth medium (100 μL). After 24 h, the medium was removed and replaced with fresh medium containing the compound to be studied at the appropriate concentration. Triplicate cultures were established for each treatment. After 24, 48, or 72 h, each well was treated with 10 μL of a 5 mg/mL MTT saline solution and, after 5 h of incubation, 100 μL of a sodium dodecylsulfate (SDS) solution in 0.01 M HCl was added. After an overnight incubation, cell growth inhibition was detected by measuring the absorbance of each well at 570 nm using a Bio-Rad 680 microplate reader. The mean absorbance for each drug dose was expressed as a percentage of the control, untreated well absorbance and plotted vs drug concentration. The IC50 values, the drug concentrations that decrease the mean absorbance at 570 nm to 50% of that of untreated control wells, were calculated from the dose–response curves with the four-parameter logistic model (4PL). The final value is the mean ± S.D. of at least three independent experiments performed in triplicate.

A375 melanoma cells = experiment: Cellular accumulation of Pt (GF-AAS); assay type: cell-based, human; settings: for cellular platinum accumulation (in words): A375, 1.5 and 3 μM, 6 and 24 h

| Compound | caspase-3 activity, factor over untreated control cells (caspase-3) | cells with decreased mitochondrial membrane potential (in words) (A375 cells [1]) | apoptotic morphology (in words) (A375 cells [2]) | time to complete reduction [3] [h] | complex reduced [3] [%] | times more cytotoxic than cisplatin [4] | IC50 [4] [nM] | cellular platinum, times greater than cisplatin (A375 melanoma cells; A375, 3 μM, 24 h, GF-AAS) | cellular platinum accumulation (in words) (A375 melanoma cells) | cellular uptake level, times lower than cisplatin (A375 melanoma cells; A375, GF-AAS) |
| --- | --- | --- | --- | --- | --- | --- | --- | --- | --- | --- |
| [NH2][Pt]([NH2])([OH])([Cl])([Cl])[O]C(=O)Cc1c[nH]c2ccccc12 [Complex 1A] | ~5 | significant and time-dependent increase | morphological features typical of cells undergoing apoptosis | 30 | 50 | four times | 3620 ± 230 | – | – | – |
| [NH2][Pt]([NH2])([OH])([Cl])([Cl])[O]C(=O)CCc1c[nH]c2ccccc12 [Complex 1P, cis,cis,trans-[Pt(NH3)2Cl2(IPA)(OH)]] | ~5 | significant and time-dependent increase | morphological features typical of cells undergoing apoptosis | 24 | 75 | four times | 2660 ± 540 | about 2.3 | internalized most efficiently | – |
| [NH2][Pt]([NH2])([Cl])([Cl])([O]C(=O)Cc1c[nH]c2ccccc12)[O]C(=O)c1ccccc1 [Complex 3A] | – | – | – | – | – | – | 2590 ± 130 | – | – | – |
| [NH2][Pt]([NH2])([Cl])([Cl])([O]C(=O)CCC(=O)O)[O]C(=O)Cc1c[nH]c2ccccc12 [Complex 4A] | – | – | – | – | – | – | 18100 ± 4320 | – | lowest platinum accumulation | about 7 |
| CC(=O)[O][Pt]([NH2])([NH2])([Cl])([Cl])[O]C(=O)Cc1c[nH]c2ccccc12 [Complex 5A] | – | – | – | – | – | – | 2800 ± 90 | – | – | – |
